Results: patent US7998988B2, “Biphenyl compounds useful in the treatment or prevention of cardiovascular disorders” (Bayer Schering Pharma Aktiengellschaft, priority 2005, dated 2011)

Test system: saphenous artery rings
Assay: Vasorelaxant effect in vitro (phenylephrine-contracted artery rings)
Assay type: cell-based
Details: rabbit saphenous artery rings, contraction induced by phenylephrine
Method: Rabbits are anesthetized and sacrificed by intravenous injection of thiopental sodium (about 50 mg/kg) and exsanguinated. The saphenous artery is removed and divided into rings 3 mm wide. The rings are mounted singly on in each case a pair of triangular hooks open at the end and made of 0.3 mm-thick special wire (Remanium®). Each ring is placed under an initial tension in 5 ml organ baths with Krebs-Henseleit solution which is at 37° C., is gassed with 95% 02/5% CO2 and has the following composition: NaCl 119 mM; KCl 4.8 mM; CaCl2×2H2O 1 mM; MgSO4×7 H2O 1.4 mM; KH2PO4 1.2 mM; NaHCO3 25 mM; glucose 10 mM; bovine serum albumin 0.001%. The force of contraction is detected with Statham UC2 cells, amplified and digitized via A/D converters (DAS-1802 HC, Keithley Instruments, Munich) and recorded in parallel on chart recorders. Contractions are induced by addition of phenylephrine.
After several (generally 4) control cycles, the substance to be investigated is added in each further run in increasing dosage, and the height of the contraction achieved under the influence of the test substance is compared with the height of the contraction reached in the last preceding run. The concentration necessary to reduce the contraction reached in the preceding control by 50% is calculated from this (IC50). The standard application volume is 5 μl. The proportion of DMSO in the bath solution corresponds to 0.1%.

Row | SMILES | IC50 (Oryctolagus cuniculus) [nM] | IC50 [nM]
1 | COc1ccc(CCc2ccc(F)cc2/C=C/C(CCc2ccc(-c3noc(=O)[nH]3)cc2)Cc2ccc(C(=O)O)cc2)cc1 (single isomer, unassigned) [Example 11, E-4-(4-{5-Fluoro-2-[2-(4-methoxyphenyl)ethyl]phenyl}-2-{2-[4-(5-oxo-4,5-dihydro-[1,2,4]oxadiazol-3-yl)phenyl]ethyl}but-3-enyl)benzoic acid] | 724 | –
2 | O=C(O)c1ccc(CC(/C=C/c2ccccc2OCc2ccc(-c3ccc(C(F)(F)F)cc3)cc2)CCc2ccc(-c3noc(=O)[nH]3)cc2)cc1 (single isomer, unassigned) [Example 19] | – | 850
3 | O=C(O)c1ccc(CCC(/C=C/c2ccccc2OCc2ccc(-c3ccc(C(F)(F)F)cc3)cc2)Cc2ccc(-c3noc(=O)[nH]3)cc2)cc1 (single isomer, unassigned) [Example 56, E-4-{3-[4-(5-Oxo-4,5-dihydro-[1,2,4]oxadiazol-3-yl)benzyl]-5-[2-(4′-trifluoromethylbiphenyl-4-ylmethoxy)phenyl]pent-4-enyl}benzoic acid] | – | 635
4 | O=C(O)c1ccc(CCC(/C=C\c2ccccc2OCc2ccc(-c3ccc(C(F)(F)F)cc3)cc2)Cc2ccc(-c3noc(=O)[nH]3)cc2)cc1 (single isomer, unassigned) [Example 57] | 714 | –
5 | CC(C)(C)c1ccc(COc2ccccc2/C=C/C(CCc2ccc(C(=O)O)cc2)Cc2ccc(-c3noc(=O)[nH]3)cc2)cc1 (single isomer, unassigned) [Example 67] | – | 153
6 | CC(C)(C)c1ccc(COc2ccccc2/C=C/C(CCCCC(=O)O)CCc2ccc(-c3noc(=O)[nH]3)cc2)cc1 (single isomer, unassigned) [Example 71, E-8-[2-(4-tert-Butylbenzyloxy)phenyl]-6-{2-[4-(5-oxo-4,5-dihydro-[1,2,4]oxadiazol-3-yl)phenyl]-ethyl}oct-7-enoic acid] | 898 | –
7 | O=C(O)c1ccc(CCC(/C=C\c2ccccc2OC(F)(F)F)Cc2ccc(-c3noc(=O)[nH]3)cc2)cc1 (single isomer, unassigned) [Example 96] | 1330 | –
8 | CC(C)(C)c1ccc(COc2ccccc2/C=C/C(CCc2ccc(-c3n[nH]c(=S)[nH]3)cc2)Cc2ccc(C(=O)O)cc2)cc1 (stereo not shown) [Example 76, 4-((3E)-4-{2-[(4-tert-Butylbenzyl)oxy]phenyl}-2-{2-[4-(5-thioxo-4,5-dihydro-1H-1,2,4-triazol-3-yl)phenyl]ethyl}but-3-en-1-yl)benzoic acid] | 851 | –

More lines, in order of falling IC50 (Oryctolagus cuniculus), values ahead:

Row | IC50 (Oryctolagus cuniculus) [nM] | IC50 [nM] | SMILES
9 | 505 | – | CC(C)(C)c1ccc(COc2ccc(F)cc2/C=C/C(CCc2ccc(-c3noc(=O)[nH]3)cc2)Cc2ccc(C(=O)O)cc2)cc1 (single isomer, unassigned) [Example 51]
10 | 490 | – | O=C(O)c1ccc(CC(/C=C/c2ccccc2OCc2ccc(-c3ccc(C(F)(F)F)cc3)cc2)CCc2ccc(-c3noc(=O)[nH]3)cc2)cc1 (single isomer, unassigned) [Example 18]
11 | 422 | – | CC(C)(C)c1ccc(COc2ccccc2/C=C/C(CCc2ccc(C(=O)O)cc2)Cc2ccc(-c3n[nH]c(N)n3)cc2)cc1 (stereo not shown) [Example 81, 4-((4E)-3-[4-(5-Amino-1H-1,2,4-triazol-3-yl)benzyl]-5-{2-[(4-tert.-butylbenzyl)oxy]phenyl}pent-4-en-1-yl)benzoic acid]
12 | 410 | – | CCCCCCOc1ccccc1/C=C/C(CCc1ccc(C(=O)O)cc1)Cc1ccc(-c2noc(=O)[nH]2)cc1 (single isomer, unassigned) [Example 95]
13 | 390 | – | CCCCCOc1ccccc1/C=C/C(CCc1ccc(C(=O)O)cc1)Cc1ccc(-c2noc(=O)[nH]2)cc1 (single isomer, unassigned) [Example 92]
14 | 290 | – | CC(C)(C)c1ccc(COc2ccccc2/C=C/C(CCCCC(=O)O)CCc2ccc(-c3n[nH]c(=O)o3)cc2)cc1 (stereo not shown) [Example 74]
15 | 263 | – | CC(C)(C)c1ccc(COc2ccccc2/C=C/C(CCc2ccc(C(=O)O)cc2)Cc2ccc(-c3noc(=O)[nH]3)cc2)cc1 (single isomer, unassigned) [Example 66]
16 | 74 | – | CC(C)(C)c1ccc(COc2ccccc2/C=C/C(CCc2ccc(C(=O)O)cc2)Cc2ccc(-c3n[nH]c(=O)[nH]3)cc2)cc1 (stereo not shown) [Example 80, 4-{(4E)-5-{2-[(4-tert-Butylbenzyl)oxy]phenyl}-3-[4-(5-oxo-4,5-dihydro-1H-1,2,4-triazol-3-yl)benzyl]pent-4-en-1-yl}benzoic acid]
17 | 58 | – | CC(C)(C)c1ccc(COc2ccccc2/C=C/C(CCCCC(=O)O)Cc2ccc(-c3n[nH]c(=O)o3)cc2)cc1 (stereo not shown) [Example 85, E-8-[2-(4-tert-Butylbenzyloxy)phenyl]-6-[4-(5-oxo-4,5-dihydro-[1,3,4]oxadiazol-2-yl)benzyl]oct-7-enoic acid]
18 | 26 | – | O=C(O)c1ccc(CN(CCc2ccc(-c3noc(=O)[nH]3)cc2)CCc2ccccc2OCc2ccc(-c3ccc(C(F)(F)F)cc3)cc2)cc1 [Example 1, 4-[({2-[4-(5-Oxo-4,5-dihydro-[1,2,4]oxadiazol-3-yl)phenyl]ethyl}-{2-[2-(4′-trifluoromethylbiphenyl-4-ylmethoxy)phenyl]ethyl}amino)methyl]benzoic acid]
19 | 13 | – | CC(C)(C)c1ccc(COc2ccccc2/C=C/C(CCc2ccc(C(=O)O)cc2)Cc2ccc(-c3n[nH]c(=O)o3)cc2)cc1 (single isomer, unassigned) [Example 78, 4-{(4E)-5-{2-[(4-tert-Butylbenzyl)oxy]phenyl}-3-[4-(5-oxo-4,5-dihydro-1,3,4-oxadiazol-2-yl)benzyl]pent-4-en-1-yl}benzoic acid]
